Test results: patent US11173140B2, “Dosing regimens of PKC activators” (COGNITIVE RESEARCH ENTERPRISES, INC., priority 2015, dated 2021)

How the values were obtained:
BDNF = test: Brain BDNF by ELISA after i.v. bryostatin dosing regimens; format: in vivo, mice; conditions: for BDNF (% of Control): mouse brain, 24 h after last dose
Method: FIG. 2 illustrates the increase in brain BDNF content in mice at 24 hours post intravenous administration of bryostatin. The dose of bryostatin administered is reflected by the number above each bar, while the number within each bar indicates the number of consecutive weeks mice receive a single weekly dose of bryostatin. Control mice were injected with vehicle. BDNF content for each test group was calculated as percent of the corresponding control. BDNF was measured in mouse brain by ELISA 24 h after the last dose. (Mean±SEM, n=3 except Cage 24 n=2, 2-tailed t-test).
Mouse studies were performed using bryostatin-i in accordance with the protocol described below. The following metrics were used to evaluate dosing regimens: induction of brain postsynaptic anchoring protein PSD-95, upregulation of BDNF levels in brain, minimal downregulation of PKC-ε levels, and elevation of brain and plasma concentrations of bryostatin. Groups of 2-3 mice were formed and housed in an approved research animal facility. Water was give ad libitum. A first study involved three groups of mice with animals in each group dosed weekly for 1, 2, 3, or 6 consecutive weeks. Each group had its own control group containing the same number of mice. In this study, mice in the first, second and third groups received an intravenous (i.v.) injection of 10 μg/m^2, 15 μg/m^2, and 25 μg/m^2 dose of bryostatin respectively. For each dose, mice in that group received a single injection of bryostatin weekly for predetermined number of consecutive weeks. Following dosing, mice were sacrificed and the blood and brain of each animal was collected for further analysis.
C57B/6 male mice weighing between 19-21 grams were obtained from Charles River and housed in cages, 1 mouse/cage in a vivarium at the Blanchette Rockefeller Neurosciences institute. Animals were allowed access to water ad libitum.
(§1) In these studies, bryostatin was administered intravenously (i.v.) by injection into the tail vein of a mouse. Stock solutions of bryostatin were prepared in dimethyl sulfoxide (DMSO). Prior to administration to a mouse, the stock DMSO solution of bryostatin was diluted to a predetermined concentration by dilution with phosphate buffered saline/saline (PBS/saline).
Three different dosing regimens (injection schedules) were compared. The dosing regimens tested were weekly dosing, dosing every other week (alternating weeks), and spaced or intermittent dosing.
(§2) The brain, whole blood, and plasma of mice in each dosing group as well as control mice was collected at 1 hour, 24 hours and 7 days after the last injection of bryostatin. PBMC's were isolated from blood and the brain, blood, plasma and PBMC's were frozen immediately using dry ice. Prior to analysis PBMC's were counted by diluting the sample (10 μl aliquot), 10-fold and the PBMC's counted using a Millipore Scepter cell counter. Every group of test animals had its own control group (N=3). Mice in the control group were injected with vehicle at a frequency similar to the dosing regimen and these animals were sacrificed and tested in parallel with mice in the test group.
(§3) Each measurement was performed four times (X4). BDNF levels were measured using ELISA and the concentration of protein PSD-95 was measured by Western Blot. High performance liquid chromatography-mass spectral analysis was used to measure the concentration of bryostatin in blood and brain samples based on a standard curve. Total protein concentrations were measured Coomassie Plus (Bradford) Protein Assay kit.
In this study, mice were administered 10 μg/m^2, 15 μg/m^2, and 25 μg/m^2 dose of bryostatin as a single injection once per week for the indicated number of consecutive weeks. […]

[1] = Bryostatin levels in brain and plasma (HPLC-MS), crossing of blood-brain barrier; format: in vivo, mice; conditions: for bryostatin (% of Control), BRAIN: mouse brain; for bryostatin (% of Control), PLASMA: mouse plasma
Method: FIG. 5 illustrates the steady state concentration of bryostatin in the brain and plasma of mice following intravenous administration at the indicated doses.
Further evaluation was performed on bryostatin crossing the blood-brain-barrier (BBB) and the steady state levels of bryostatin in the brain and plasma of mice. […] The concentration of bryostatin in mice brain was less than its concentration in plasma.
as §1, §2, §3
The therapeutic efficacy of bryostatin depends at least in part on its ability to cross the blood-brain-barrier (BBB). To evaluate whether dosing regimen influences the bryostatin levels in brain, mice were administered the drug intravenously. Table 9 illustrates the effect of dose and dosing regimen on bryostatin levels in the brain and plasma of mice. Sporadic dosing increased the levels of bryostatin in brain compared to plasma. See data for mice in cages 9 and 11.

[2] = cage 4: 25 μg/m^2 i.v. once weekly, 3 weeks, 24 h
[3] = cage 6: 10 μg/m^2 i.v. once weekly, 3 weeks, 24 h
[4] = cage 9: 25 μg/m^2 i.v., weeks 1 and 3, 24 h
[5] = cage 11: 25 μg/m^2 i.v., weeks 1 and 2, 7 d delay

Structure (SMILES): CCC/C=C/C=C/C(=O)O[C@H]1/C(=C/C(=O)OC)C[C@H]2C[C@H]([C@@H](C)O)OC(=O)C[C@H](O)C[C@@H]3C[C@H](OC(C)=O)C(C)(C)[C@](O)(C[C@@H]4C/C(=C/C(=O)OC)C[C@H](/C=C/C(C)(C)[C@]1(O)O2)O4)O3 [Bryostatin-1]
- brain BDNF levels (BDNF; mice, 10 μg/m^2 i.v., 3 or 6 consecutive weeks): did not result in elevated levels of brain BDNF
- brain BDNF levels (BDNF; mice, 15 μg/m^2, three consecutive weeks): some increase
- brain BDNF levels (BDNF; mice, 25 μg/m^2): maximum increase
- brain BDNF (BDNF; mice, 25 μg/m^2, 3 weekly doses, 3 weeks no dosing, 3 more weekly doses): remained elevated
- BDNF (% of Control) (BDNF; cage 4: 25 μg/m^2 i.v. once weekly, 3 weeks): 192.869 % of Control
- BDNF (% of Control) (BDNF; cage 5: 25 μg/m^2 i.v., 3 on/3 off/3 on (9 weeks)): 149.023 % of Control
- BDNF (% of Control) (BDNF; cage 6: 10 μg/m^2 i.v. once weekly, 3 weeks): 107.047 % of Control
- BDNF (% of Control) (BDNF; cage 8: 10 μg/m^2 i.v. once weekly, 6 weeks): 99.137 % of Control
- BDNF (% of Control) (BDNF; cage 18: 15 μg/m^2 i.v. once weekly, 3 weeks): 110.969 % of Control
- BDNF (% of Control) (BDNF; cage 22 (regimen not listed in Tables 2/3)): 133.142 % of Control
- BDNF (% of Control) (BDNF; cage 24: 25 μg/m^2 i.v. once weekly, 2 weeks): 135.095 % of Control
- increase of bryostatin concentration in brain ([1]; mice, 25 μg/m^2 weekly for three consecutive weeks versus 1 on/1 off or 2 on/1 off): less effective
- crossing of the blood-brain-barrier ([1]; mice, intravenous): crossed the BBB
- plasma concentrations of bryostatin ([1]; mice, single weekly injection for three consecutive weeks versus 1 on/1 off or 2 on/1 off): greater
- levels of bryostatin in brain compared to plasma ([1]; mice, sporadic dosing (cages 9 and 11)): increased
- bryostatin (% of Control), BRAIN [1, 2]: 0.0140 % of Control
- bryostatin (% of Control), BRAIN [1, 3]: 0.0202 % of Control
- bryostatin (% of Control), BRAIN [1, 4]: 0.0197 % of Control
- bryostatin (% of Control), BRAIN [1, 5]: 0.0217 % of Control
- bryostatin (% of Control), PLASMA [1, 2]: 0.0306 % of Control
- bryostatin (% of Control), PLASMA [1, 3]: 0.0287 % of Control
- bryostatin (% of Control), PLASMA [1, 4]: 0.0148 % of Control
- bryostatin (% of Control), PLASMA [1, 5]: 0.0012 % of Control
